Assay results as given in patent publication US5232922A, “Imidazole compounds, processes for their preparation, pharmaceuticals based on these compounds and some intermediates” (priority 1990, dated 1993).

Experiments:
[1] = tested on: laser-induced thrombosis in mesenterial arterioles; test: Inhibition of laser-induced thrombosis in mesenterial arterioles of the rat; format: in vivo, rat (female Sprague-Dawley); settings: for inhibition in vivo at 10 mg/kg: 10 mg/kg p.o.
[2] = tested on: skeletal muscle of the rat (chronic ischemic); test: Effect on the contractility of the skeletal muscle after chronic ischemia (tiring index); format: in vivo, rat (male Wistar); settings: 6 mg/kg p.o. over 7 days, n = 4-6; for TI of ischemic treated muscle: tiring index = maximum contractility / residual force after 5 min stimulation; for change in vivo at 6 mg/kg: Rattus norvegicus, po, 168 h, read-out: Percentage change (TI of ischemic treated muscle vs TI of normal non-treated muscle)
Description: 1) Effect on the Contractility of the Skeletal Muscle After Chronic Ischemia
In recent years, a marked change has taken place in ideas about the pathophysiology of chronic peripheral arterial occlusive disease as scientific interest has to an increasing extent shifted from the macrocirculation to the microcirculation. Disturbances in the microcirculation therefore manifest themselves in an undersupply of substrates with tissue ischemia resulting therefrom which, in turn, leads to an impairment in the function of the extremity concerned. The logical consequence of this is that the target organ skeletal muscle comes more and more into the forefront. […] The clinical activity is in fact also consistently determined in humans with the aid of the painless walking distance on the moving walkway.
Male Wistar rats having a body weight of 380 to 410 g were used as experimental animals. Under hexobarbital anesthesia (®Evipan--sodium, 200 mg/kg BW (=body weight) i.p.), a unilateral ligature of the right femoral artery was applied to the animals in the groin. After sprinkling penicillin sulfonamide powder for antibiotic wound care, the small operation wound was closed and the animals were continuously observed until they were completely awake. One week later, the administration of substance began by oral administration using a stomach tube (6 mg/kg BW, carboxymethylcellulose-sodium suspension) and was continued for 7 days (single administration per day, about 7h30 to 8h30). The contractility was measured 24 h after the last administration of substance in order to exclude acute effects, to be precise by the following experimental protocol:
Superfusion with physiological saline solution (37° C.) was used to avoid drying out and cooling. The mean arterial blood pressure was recorded continuously via Statham (=blood pressure measuring device) by means of a cannulated caroted artery to control the physiological status of the animals during the experiment. All animals breathed spontaneously by means of an inserted tracheal tube.
After these preparations, the muscle was made to contract (Stimulator I, Hugo Sachs, Federal Republic of Germany) by direct electrical stimulation (2.5 mA, 2 Hz). The absolute contractility in grams at various times of stimulation was used as the measured parameter. […] If the maximum contractility at the start of stimulation is now divided by the residual force remaining after 5 minutes' tiring stimulation, a "tiring index TI" for the muscle concerned can be calculated; the ability to tire here is larger the larger TI is numerically.
4 to 6 individual experiments were carried out for each test preparation.

[3] = Acute toxicity (LD50 range); settings: mouse, in vivo, single administration, NMRI mice, 7 days
Description: The determination of the LD50 ranges was carried out in standard fashion by means of the mortality occurring in the course of 7 days in NMRI mice after single intravenous (i.v.) or intraperitoneal (i.p.) administration (NMRI=NIH Medical Research Institute).

[4] = Rattus norvegicus, po, read-out: Percentage change vs control (inhibition of laser-induced thrombosis)
[5] = Rattus norvegicus, po, 20 mg/kg p.o., read-out: Percentage change vs control (inhibition of laser-induced thrombosis)

Molecule | Percentage change vs control (inhibition of laser-induced thrombosis) ([1]; 20 mg/kg p.o.) [%] | Percentage change (TI of ischemic treated muscle vs TI of normal non-treated muscle) ([2]; smaller value = more effective) | TI of ischemic treated muscle [2] | LD50 at 168 h ([3]; iv) [mg/kg] | inhibition in vivo at 10 mg/kg [1, 4] [%] | change in vivo at 6 mg/kg ([2]; smaller value = more effective) [%] | inhibition in vivo at 20 mg/kg [1, 5] [%] | LD50 at 168 h ([3]; ip) [mg/kg] | inhibition in vivo at 30 mg/kg ([1]; Rattus norvegicus, po, 30 mg/kg p.o., read-out: Percentage change vs control (inhibition of laser-induced thrombosis)) [%]
1-[3-(1-methyl-5-imidazolesulfonyl)-aminopropyl]-2-pyrrolidinone [Example 43] | 15 | +29.4% | 2.29 |  |  |  |  |  | 
Cn1cnc(S(=O)(=O)O)c1Cl [Example 1, 5-Chloro-1-methyl-4-imidazolesulfonic acid] |  |  | 2.26 | > 200 | 13 | 1.3 |  |  | 
Cn1cnc(S(=O)(=O)O)c1 [Example 3, 1-Methyl-4-imidazolesulfonic acid] |  |  | 2.26 |  |  | 7.1 | 23 |  | 
Cl.Cn1cnc(S(=O)(=O)NCCCCN2CCOCC2)c1 [Example 10, N-(4-morpholinobutyl)-1-methyl-4-imidazolesulfonamide hydrochloride] |  |  | 2.19 | > 100 | 38 | -3.6 |  |  | 
CC(CNS(=O)(=O)c1cn(C)cn1)CN1CCOCC1.Cl (stereo not drawn) [Example 12, N-(3-morpholino-2-methyl-1-propyl)-1-methyl-4-imidazolesulfonamide hydrochloride] |  |  |  | > 100 |  |  | 24 |  | 
Cl.Cn1cnc(S(=O)(=O)NCCCN2CCSCC2)c1 [Example 13, N-(3-thiomorpholinopropyl)-1-methyl-4-imidazolesulfonamide hydrochloride] |  |  | 2.95 |  |  | -10.1 | 14 |  | 
Cl.Cn1cnc(S(=O)(=O)NCc2ccc(CN3CCOCC3)cc2)c1 [Example 14, N-[4-(morpholinomethyl)benzyl]-1-methyl-4-imidazolesulfonamide hydrochloride] |  |  | 2.57 | > 100 |  | 13.4 | 13 |  | 
CN1CCCC1CCNS(=O)(=O)c1cn(C)cn1.Cl (stereo not drawn) [Example 21, N-[2-(1-methyl-2-pyrrolidinyl)-ethyl]-1-methyl-4-imidazolesulfonamide hydrochloride] |  |  | 2.34 |  |  | 19.4 | 24 |  | 
Cn1cnc(S(=O)(=O)N2CCN(c3ccc(O)cc3)CC2)c1 [Example 25] |  |  | 2.11 |  | 22 | 6.6 |  | > 300 | 
Cl.Cn1cnc(S(=O)(=O)NCCCN2CCN(Cc3ccccc3)CC2)c1 [Example 26, N-[3-(4-benzyl-1-piperazinyl)-propyl]-1-methyl-4-imidazolesulfonamide hydrochloride] |  |  | 2.49 |  | 24 | 25.7 |  |  | 
CN1CCN(CCCNS(=O)(=O)c2cn(C)cn2)CC1 [Example 27, N-[3-(4-Methylpiperazino)propyl]-1-methyl-4-imidazolesulfonamide dihydrogenfumarate] |  |  | 2.6 | > 100 |  | 32.6 | 23 |  | 
Cl.Cn1ccnc1S(=O)(=O)NCCCN1CCOCC1 [Example 29, N-(3-Morpholinopropyl)-1-methyl-2-imidazolesulfonamide hydrochloride] |  |  | 2.74 | > 100 | 21 | 38.4 |  |  | 
Cl.Cn1ccnc1S(=O)(=O)NCCN1CCOCC1 [Example 30, N-(2-Morpholinoethyl)-1-methyl-2-imidazolesulfonamide hydrochloride] |  |  | 2.82 | > 100 | 45 | -14.2 |  |  | 
Cl.Cn1cnc(S(=O)(=O)NCCCN2CCOCC2)c1Cl [Example 32, N-(3-Morpholinopropyl)-5-chloro-1-methyl-4-imidazolesulfonamide hydrochloride] |  |  | 2.51 | > 200 | 21 | 6.4 |  |  | 
Cc1nc(S(=O)(=O)NCCCN2CCOCC2)cn1C.Cl [Example 33, N-(3-Morpholinopropyl)-1,2-dimethyl-4-imidazolesulfonamide hydrochloride] |  |  | 2.30 |  | 18 | 12.2 |  |  | 
Cl.Cn1cnc(S(=O)(=O)NCCCCCN2CCOCC2)c1Cl [Example 34, N-(5-Morpholino-1-pentyl)-5-chloro-1-methyl-4-imidazolesulfonamide hydrochloride] |  |  | 1.98 | > 100 | 15 | 0 |  |  | 
Cn1cnc(S(=O)(=O)NC(CN2CCOCC2)CN2CCOCC2)c1 [Example 38, N-(1,3-Dimorpholino-2-propyl)-1-methyl-4-imidazolesulfonamide] |  |  | 2.18 |  | 21 | 10.1 |  |  | 
Cn1cnc(S(=O)(=O)N2CCN(c3ccc(O)cc3)CC2)c1Cl [Example 40] |  |  | 3.18 |  | 17 | 34.7 |  | > 1200 | 
Cn1cnc(S(=O)(=O)NCCc2ccc(O)cc2)c1Cl [Example 46, N-(4-hydroxyphenethyl-)-5-chloro-1-methyl-4-imidazolesulfonamide] |  |  | 2.05 |  | 29 | -6.4 |  | > 1200 | 29
Cl.Cn1cncc1S(=O)(=O)NCCCN1CCOCC1 [Example 53, N-(3-Morpholino-1-propyl)-1-methyl-5-imidazolesulfonamide hydrochloride] |  |  | 3.18 | > 100 | 18 | -3.3 |  |  | 
Cn1cnc(S(=O)(=O)NCCCCCCNS(=O)(=O)c2cn(C)cn2)c1 [Example 54, 1,6-Bis(1-methyl-4-imidazolesulfonamido)hexane] |  |  | 2.55 |  | 17 | 37.8 |  | > 1200 | 
Cn1cnc(S(=O)(=O)NCCC[N+]2(C)CCOCC2)c1 [Example 56, 4-Methyl-4-[3-(1-methyl-4-imidazolesulfamoyl)-1-propyl]morpholinium iodide] |  |  |  | > 100 | 24 |  |  |  | 
Cn1cnc(S(=O)(=O)N2CCS(=O)(=O)CC2)c1 [Example 57, 4-(1-Methyl-4-imidazolesulfonyl)tetrahydro-4H-1,4-thiazine-1,1-dioxide] |  |  |  |  | 19 |  |  |  | 
CNCCCNS(=O)(=O)c1cn(C)cn1.Cl [Example 62, N-(3-Methylamino-1-propyl)-1-methyl-4-imidazolesulfonamide hydrochloride] |  |  | 2.5 |  |  | 27.8 |  |  | 
